Values of other authors as cited in US5763435A, “Sulfate conjugates of ursodeoxycholic acid, and their beneficial use in inflammatory disorders” (priority 1995, dated 1998).

How the values were obtained:
[1] = rat, in vivo; cited from earlier work
[2] = system: colonic epithelial cell; conditions: in vitro; cited from earlier work

| Compound | Metabolism to 3α,7α-disulfate, 6β-hydroxy 5β-cholanoic acid [1] | Effect on colonic epithelial cell proliferation (in words) [2] |
| --- | --- | --- |
| C[C@H](CCC(=O)NCCS(=O)(=O)O)[C@H]1CC[C@H]2[C@@H]3[C@H](OS(=O)(=O)O)C[C@@H]4C[C@H](OS(=O)(=O)O)CC[C@]4(C)[C@H]3CC[C@]12C [taurochenodeoxycholic acid disulfates] | 90% |  |
| C[C@H](CCC(=O)O)[C@H]1CC[C@H]2[C@@H]3CC[C@@H]4C[C@H](O)CC[C@]4(C)[C@H]3C[C@H](O)[C@]12C [deoxycholic, deoxycholic acid] |  | comitogenic |
| C[C@H](CCC(=O)O)[C@H]1CC[C@H]2[C@@H]3CC[C@@H]4C[C@H](O)CC[C@]4(C)[C@H]3CC[C@]12C [lithocholic acids, lithocholic acid] |  | comitogenic |
| C[C@H](CCC(=O)NCC(=O)O)[C@H]1CC[C@H]2[C@@H]3[C@H](OS(=O)(=O)O)C[C@@H]4C[C@H](OS(=O)(=O)O)CC[C@]4(C)[C@H]3CC[C@]12C [glycochenodeoxycholic acid disulfates] | 90% |  |
